Like-named read-outs stand apart in the source and are kept apart here.
Target: T1, BRM (Homo sapiens, UniProt P51531)
T1 construct: In-Cell Western Screen of BRM Degradation in SW1573 Cells; endogenous in cells; host or cells: SW1573
Experiment: In-cell Western screen of BRM degradation in SW1573 cells (Dmax and DC50)
Format: cell-based
In short: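 SW1573, overnight cpd exposure (18-20 h), 0.1% DMSO final. PFA fix, 0.5% Triton permeabilization, block; IR secondaries at 800/680 nm. Odyssey read → Dmax, DC50.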

[1] = BRM degradation, SW1573 cells, Table 2D, read-out: **Dmax (%) (% degraded)
[2] = BRM degradation, SW1573 cells, Table 2D, read-out: *DC50
[3] = SW1573, % degraded, when tested at the top concentration of between 0.3 and 10 μM, read-out: BRM Dmax (%)
[4] = target protein degradation, read-out: BRM DC50
[5] = BRM degradation, SW1573 cells, read-out: DC50
[6] = BRM degradation, SW1573 cells, when tested at the top concentration of between 0.3 and 10 μM, read-out: Dmax (%) (% degraded)

T1 sequence (P51531 whole entry): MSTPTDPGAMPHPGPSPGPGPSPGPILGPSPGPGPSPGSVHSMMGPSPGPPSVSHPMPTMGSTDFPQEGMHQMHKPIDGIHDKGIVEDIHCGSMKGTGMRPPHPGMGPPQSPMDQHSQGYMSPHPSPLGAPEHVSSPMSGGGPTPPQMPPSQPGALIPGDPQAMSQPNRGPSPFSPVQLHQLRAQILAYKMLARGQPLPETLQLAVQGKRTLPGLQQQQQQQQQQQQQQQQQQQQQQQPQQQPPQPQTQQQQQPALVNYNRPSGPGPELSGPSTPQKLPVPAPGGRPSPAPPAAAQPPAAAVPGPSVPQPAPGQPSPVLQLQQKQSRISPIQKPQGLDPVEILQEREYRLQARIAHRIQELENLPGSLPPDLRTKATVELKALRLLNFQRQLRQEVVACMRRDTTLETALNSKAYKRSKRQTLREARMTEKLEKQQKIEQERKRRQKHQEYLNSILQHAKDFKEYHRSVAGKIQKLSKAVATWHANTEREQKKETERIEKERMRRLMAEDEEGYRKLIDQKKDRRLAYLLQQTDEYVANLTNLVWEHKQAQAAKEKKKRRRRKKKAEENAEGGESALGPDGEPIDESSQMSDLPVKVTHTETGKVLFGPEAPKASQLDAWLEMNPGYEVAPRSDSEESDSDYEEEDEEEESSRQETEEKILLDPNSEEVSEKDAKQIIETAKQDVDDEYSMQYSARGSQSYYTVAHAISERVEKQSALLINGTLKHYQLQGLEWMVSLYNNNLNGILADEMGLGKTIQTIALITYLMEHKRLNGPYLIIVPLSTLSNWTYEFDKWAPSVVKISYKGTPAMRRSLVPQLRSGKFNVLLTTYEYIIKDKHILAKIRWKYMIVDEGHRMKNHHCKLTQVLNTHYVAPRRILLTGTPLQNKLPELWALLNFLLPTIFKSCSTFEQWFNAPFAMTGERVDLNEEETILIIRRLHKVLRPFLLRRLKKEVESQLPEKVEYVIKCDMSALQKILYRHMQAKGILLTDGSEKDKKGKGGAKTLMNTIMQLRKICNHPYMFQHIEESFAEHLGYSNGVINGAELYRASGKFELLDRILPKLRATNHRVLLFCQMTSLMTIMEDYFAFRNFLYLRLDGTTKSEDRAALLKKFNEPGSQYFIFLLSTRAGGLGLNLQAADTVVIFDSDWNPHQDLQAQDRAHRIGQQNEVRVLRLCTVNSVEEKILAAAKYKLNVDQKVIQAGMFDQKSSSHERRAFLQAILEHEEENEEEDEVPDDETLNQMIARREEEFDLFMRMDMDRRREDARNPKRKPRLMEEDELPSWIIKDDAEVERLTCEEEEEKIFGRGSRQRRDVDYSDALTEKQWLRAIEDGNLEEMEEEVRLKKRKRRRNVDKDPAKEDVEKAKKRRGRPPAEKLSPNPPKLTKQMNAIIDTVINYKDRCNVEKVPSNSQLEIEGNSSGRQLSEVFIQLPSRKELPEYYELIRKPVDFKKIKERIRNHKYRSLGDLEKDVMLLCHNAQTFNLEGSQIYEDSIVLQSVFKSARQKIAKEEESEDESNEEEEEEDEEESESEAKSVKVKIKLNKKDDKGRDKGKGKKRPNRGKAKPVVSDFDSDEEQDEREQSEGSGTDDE

Row | Structure (SMILES) | Dmax [1] [%] | DC50 [2] [µM] | Dmax [3] [%] | DC50 [4] [µM] | DC50 [5] [µM] | further results
1 | CC(C)[C@@H](C(=O)N1C[C@H](O)C[C@H]1C(=O)N[C@@H](C)c1ccc(-c2ccnn2C)cc1)c1cc(N2CCC(CN3CCC(O[C@H]4C[C@H](Oc5cc(N6C7CCC6CN(c6cc(-c8ccccc8O)nnc6N)C7)ccn5)C4)CC3)CC2)no1 [compound 622, (2S,4R)-1-((2R)-2-(3-(4-((4-((1r,3r)-3-((4-(3-(3-amino-6-(2-hydroxyphenyl)pyridazin-4-yl)-3,8-diazabicyclo[3.2.1]octan-8-yl)pyridin-2-yl)oxy)cyclobutoxy)piperidin-1-yl)methyl)piperidin-1-yl)isoxazol-5-yl)-3-methylbutanoyl)-4-hydroxy-N-((S)-1-(4-(1-methyl-1H-pyrazol-5-yl)phenyl)ethyl)pyrrolidine-2-carboxamide] | > 75 | < 0.0025 | – | – | – | –
2 | Cc1cnc(C)n1-c1ccc([C@H](C)NC(=O)[C@@H]2C[C@@H](O)CN2C(=O)[C@@H](c2cc(OCCN3CCC(O[C@H]4C[C@H](Oc5cc(N6C7CCC6CN(c6cc(-c8ccccc8O)nnc6N)C7)ccn5)C4)CC3)no2)C(C)C)cc1 [compound 376, (2S,4R)-1-((2R)-2-(3-(2-(4-((1r,3R)-3-((4-(3-(3-amino-6-(2-hydroxyphenyl)pyridazin-4-yl)-3,8-diazabicyclo[3.2.1]octan-8-yl)pyridin-2-yl)oxy)cyclobutoxy)piperidin-1-yl)ethoxy)isoxazol-5-yl)-3-methylbutanoyl)-N-((S)-1-(4-(2,5-dimethyl-1H-imidazol-1-yl)phenyl)ethyl)-4-hydroxypyrrolidine-2-carboxamide] | – | – | > 75 | 0.01 to 0.03 | – | –
3 | Cc1ncsc1-c1ccc([C@H](C)NC(=O)[C@@H]2C[C@@H](O)CN2C(=O)[C@@H](c2cc(OCC[C@@H]3CCN(C[C@H]4C[C@H](Oc5cc(N6C7CCC6CN(c6cc(-c8ccccc8O)nnc6N)C7)ccn5)C4)C[C@H]3C)no2)C(C)C)cc1 (racemic) [compound 546, (2S,4R)-1-((2R)-2-(3-(2-((3S,4S)-1-(((1r,3S)-3-((4-(3-(3-amino-6-(2-hydroxyphenyl)pyridazin-4-yl)-3,8-diazabicyclo[3.2.1]octan-8-yl)pyridin-2-yl)oxy)cyclobutyl)methyl)-3-methylpiperidin-4-yl)ethoxy)isoxazol-5-yl)-3-methylbutanoyl)-4-hydroxy-N-((S)-1-(4-(4-methylthiazol-5-yl)phenyl)ethyl)pyrrolidine-2-carboxamide] | > 75 | < 0.0025 | – | – | – | –
4 | Cc1ncsc1-c1ccc([C@H](C)NC(=O)[C@@H]2C[C@@H](O)CN2C(=O)[C@@H](c2cc(OCCN3CCC(O[C@H]4C[C@H](OCCn5cc(-c6cc(-c7ccccc7O)nnc6N)cn5)C4)CC3)no2)C(C)C)cc1 [compound 189, (2S,4R)-1-((R)-2-(3-(2-(4-((1r,3R)-3-(2-(4-(3-amino-6-(2-hydroxyphenyl)pyridazin-4-yl)-1H-pyrazol-1-yl)ethoxy)cyclobutoxy)piperidin-1-yl)ethoxy)isoxazol-5-yl)-3-methylbutanoyl)-4-hydroxy-N-((S)-1-(4-(4-methylthiazol-5-yl)phenyl)ethyl)pyrrolidine-2-carboxamide] | – | – | – | – | < 0.0025 | Dmax (BRM degradation, SW1573 cells, tested at the top concentration of between 0.3 and 10 μM, read-out: Dmax (%) (% degraded)): > 75%
5 | Cc1ncsc1-c1ccc([C@H](C)NC(=O)[C@@H]2C[C@@H](O)CN2C(=O)[C@@H](c2cc(OCCN3CCC(O[C@H]4C[C@H](Oc5cc(N6C7CCC6CN(c6cc(-c8ccccc8O)nnc6N)C7)ccn5)C4)CC3)no2)C(C)C)nc1 [compound 368, (2S,4R)-1-((2R)-2-(3-(2-(4-((1r,3R)-3-((4-(3-(3-amino-6-(2-hydroxyphenyl)pyridazin-4-yl)-3,8-diazabicyclo[3.2.1]octan-8-yl)pyridin-2-yl)oxy)cyclobutoxy)piperidin-1-yl)ethoxy)isoxazol-5-yl)-3-methylbutanoyl)-4-hydroxy-N-((S)-1-(5-(4-methylthiazol-5-yl)pyridin-2-yl)ethyl)pyrrolidine-2-carboxamide] | – | – | > 75 | < 0.0025 | – | –
6 | Cc1ncsc1-c1ccc([C@H](C)NC(=O)[C@@H]2C[C@@H](O)CN2C(=O)[C@H](c2cc(OCCCCN3CCN(CCCCOc4cc(N5C6CCC5CN(c5cc(-c7ccccc7O)nnc5N)C6)ccn4)CC3)no2)C(C)C)cc1 [compound 389, (2S,4R)-1-((2S)-2-(3-(4-(4-(4-((4-(3-(3-amino-6-(2-hydroxyphenyl)pyridazin-4-yl)-3,8-diazabicyclo[3.2.1]octan-8-yl)pyridin-2-yl)oxy)butyl)piperazin-1-yl)butoxy)isoxazol-5-yl)-3-methylbutanoyl)-4-hydroxy-N-((S)-1-(4-(4-methylthiazol-5-yl)phenyl)ethyl)pyrrolidine-2-carboxamide] | – | – | > 75 | 0.01 to 0.03 | – | –
7 | Cc1ncsc1-c1ccc([C@@H](NC(=O)[C@@H]2C[C@@H](O)CN2C(=O)[C@@H](c2cc(N3CCC(CN4CCC(O[C@H]5C[C@H](Oc6cc(N7C8CCC7CN(c7cc(-c9ccccc9O)nnc7N)C8)ccn6)C5)CC4)CC3)no2)C(C)C)C(F)F)cc1 [compound 572, (2S,4R)-1-((2R)-2-(3-(4-((4-((1r,3r)-3-((4-(3-(3-amino-6-(2-hydroxyphenyl)pyridazin-4-yl)-3,8-diazabicyclo[3.2.1]octan-8-yl)pyridin-2-yl)oxy)cyclobutoxy)piperidin-1-yl)methyl)piperidin-1-yl)isoxazol-5-yl)-3-methylbutanoyl)-N-((R)-2,2-difluoro-1-(4-(4-methylthiazol-5-yl)phenyl)ethyl)-4-hydroxypyrrolidine-2-carboxamide] | > 75 | < 0.0025 | – | – | – | –
8 | Cc1ncsc1-c1ccc([C@H](C)NC(=O)[C@@H]2C[C@@H](O)CN2C(=O)[C@H](c2cc(OCCC3CCN(C(=O)[C@H]4C[C@H](CN5CCC([C@H](C)n6cc(-c7cc(-c8ccccc8O)nnc7N)cn6)CC5)C4)CC3)no2)C(C)C)cc1 [compound 453, (2S,4R)-1-((S)-2-(3-(2-(1-((1S,3S)-3-((4-((S)-1-(4-(3-amino-6-(2-hydroxyphenyl)pyridazin-4-yl)-1H-pyrazol-1-yl)ethyl)piperidin-1-yl)methyl)cyclobutane-1-carbonyl)piperidin-4-yl)ethoxy)isoxazol-5-yl)-3-methylbutanoyl)-4-hydroxy-N-((S)-1-(4-(4-methylthiazol-5-yl)phenyl)ethyl)pyrrolidine-2-carboxamide] | – | – | > 75 | < 0.0025 | – | –
9 | Cc1ncsc1-c1ccc([C@H](C)NC(=O)[C@@H]2C[C@@H](O)CN2C(=O)[C@H](c2onc(OCCN3CCN(CCOc4cc(N5C6CCC5CN(c5cc(-c7ccccc7O)nnc5N)C6)ccn4)CC3)c2Cl)C(C)C)cc1 [compound 54, (2S,4R)-1-((2S)-2-(3-(2-(4-(2-((4-(3-(3-amino-6-(2-hydroxyphenyl)pyridazin-4-yl)-3,8-diazabicyclo[3.2.1]octan-8-yl)pyridin-2-yl)oxy)ethyl)piperazin-1-yl)ethoxy)-4-chloroisoxazol-5-yl)-3-methylbutanoyl)-4-hydroxy-N-((S)-1-(4-(4-methylthiazol-5-yl)phenyl)ethyl)pyrrolidine-2-carboxamide] | – | – | – | – | > 0.03 | Dmax [6]: > 75%
10 | Cc1ncsc1-c1ccc(CNC(=O)[C@@H]2C[C@@H](O)CN2C(=O)[C@@H](c2cc(OCCOCCOCCn3cc(-c4cc(-c5ccccc5O)nnc4N)cn3)no2)C(C)C)cc1 [compound 15, (2S,4R)-1-[(2R)-2-(3-[2-[2-(2-[4-[3-amino-6-(2-hydroxyphenyl)pyridazin-4-yl]-1H-pyrazol-1-yl]ethoxy)ethoxy]ethoxy]-1,2-oxazol-5-yl)-3-methylbutanoyl]-4-hydroxy-N-[[4-(4-methyl-1,3-thiazol-5-yl)phenyl]methyl]pyrrolidine-2-carboxamide] | – | – | – | – | 0.01 to 0.03 | Dmax [6]: > 75%

— patent US12539292B2, “BRM targeting compounds and associated methods of use” (Arvinas Operations, Inc., priority 2018, dated 2026)
